# In patent US11292821B2, “Peptides and combination of peptides for use in immunotherapy against lung cancer, including NSCLC, SCLC and other cancers” (Immatics Biotechnologies GmbH, priority 2017, dated 2022):
# Columns and labels:
# CD8+ T cells = assay: In vitro T-cell priming assay with aAPCs (in vitro immunogenicity for MHC class I presented peptides); type: cell-based, human; settings: in vitro immunogenicity
# HLA-A*03 = HLA-A*03 (Homo sapiens, UniProt P04439); assay: MHC binding assay (UV-ligand exchange, β2m ELISA)
# HLA-B*08 = assay: MHC binding assay (UV-ligand exchange, β2m ELISA); parameters: species or system human
substance,measurement,setting,value
209 (RTQIPMSEK; listed as Homo sapiens) [compound 209],Wells positive [%],CD8+ T cells; HLA A*03,“+” (<20% = +)
same,"Peptide exchange (peptide exchange yield, MHC class I binding score)",HLA-A*03,“++++” (>75% = ++++)
210 (ATSGVPVYK; listed as Homo sapiens) [compound 210],Wells positive [%],CD8+ T cells; HLA A*03,“++++” (>=70% = ++++)
same,"Peptide exchange (peptide exchange yield, MHC class I binding score)",HLA-A*03,“++++” (>75% = ++++)
214 (RTMSEAALVRK; listed as Homo sapiens) [compound 214],Wells positive [%],CD8+ T cells; HLA A*03,“+” (<20% = +)
same,"Peptide exchange (peptide exchange yield, MHC class I binding score)",HLA-A*03,“++++” (>75% = ++++)
218 (KTLVAELLILK; listed as Homo sapiens) [compound 218],Wells positive [%],CD8+ T cells; HLA A*03,“+” (<20% = +)
same,"Peptide exchange (peptide exchange yield, MHC class I binding score)",HLA-A*03,“+++” (>50 = +++)
296 (MPMQDIKM; listed as Homo sapiens) [compound 296],"Peptide exchange (peptide exchange yield, MHC class I binding score)",HLA-B*08,“++++” (>75% = ++++)
297 (RAQLKLVAL; listed as Homo sapiens) [compound 297],Wells positive [%],CD8+ T cells; HLA B*08,“+” (<20% = +)
same,"Peptide exchange (peptide exchange yield, MHC class I binding score)",HLA-B*08,“++++” (>75% = ++++)
298 (FNKRKPLSL; listed as Homo sapiens) [compound 298],Wells positive [%],CD8+ T cells; HLA B*08,“+” (<20% = +)
same,"Peptide exchange (peptide exchange yield, MHC class I binding score)",HLA-B*08,“+++” (>50 = +++)
299 (MAQFKEISL; listed as Homo sapiens) [compound 299],Wells positive [%],CD8+ T cells; HLA B*08,“++++” (>=70% = ++++)
same,"Peptide exchange (peptide exchange yield, MHC class I binding score)",HLA-B*08,“++++” (>75% = ++++)
300 (VASPKHCVL; listed as Homo sapiens) [compound 300],Wells positive [%],CD8+ T cells; HLA B*08,“+” (<20% = +)
same,"Peptide exchange (peptide exchange yield, MHC class I binding score)",HLA-B*08,“+++” (>50 = +++)
301 (YMHKLLVL; listed as Homo sapiens) [compound 301],"Peptide exchange (peptide exchange yield, MHC class I binding score)",HLA-B*08,“++++” (>75% = ++++)
302 (HLLQKQTSI; listed as Homo sapiens) [compound 302],"Peptide exchange (peptide exchange yield, MHC class I binding score)",HLA-B*08,“+++” (>50 = +++)
303 (LPFPKFTV; listed as Homo sapiens) [compound 303],Wells positive [%],CD8+ T cells; HLA B*08,“++” (20%-49% = ++)
same,"Peptide exchange (peptide exchange yield, MHC class I binding score)",HLA-B*08,“++++” (>75% = ++++)
304 (ELKKLYCQI; listed as Homo sapiens) [compound 304],"Peptide exchange (peptide exchange yield, MHC class I binding score)",HLA-B*08,“++++” (>75% = ++++)
305 (ALKLRVAVL; listed as Homo sapiens) [compound 305],Wells positive [%],CD8+ T cells; HLA B*08,“+” (<20% = +)
same,"Peptide exchange (peptide exchange yield, MHC class I binding score)",HLA-B*08,“++++” (>75% = ++++)
306 (ILKVKVGL; listed as Homo sapiens) [compound 306],Wells positive [%],CD8+ T cells; HLA B*08,“+” (<20% = +)
same,"Peptide exchange (peptide exchange yield, MHC class I binding score)",HLA-B*08,“++++” (>75% = ++++)
307 (ILLPRTVSL; listed as Homo sapiens) [compound 307],Wells positive [%],CD8+ T cells; HLA B*08,“+” (<20% = +)
same,"Peptide exchange (peptide exchange yield, MHC class I binding score)",HLA-B*08,“++++” (>75% = ++++)
308 (MLKQKVEEL; listed as Homo sapiens) [compound 308],Wells positive [%],CD8+ T cells; HLA B*08,“+” (<20% = +)
same,"Peptide exchange (peptide exchange yield, MHC class I binding score)",HLA-B*08,“++++” (>75% = ++++)
309 (DAIQRKYSC; listed as Homo sapiens) [compound 309],"Peptide exchange (peptide exchange yield, MHC class I binding score)",HLA-B*08,“+++” (>50 = +++)
310 (LPPKKFVL; listed as Homo sapiens) [compound 310],"Peptide exchange (peptide exchange yield, MHC class I binding score)",HLA-B*08,“++++” (>75% = ++++)
311 (EIRIRVVQM; listed as Homo sapiens) [compound 311],Wells positive [%],CD8+ T cells; HLA B*08,“+” (<20% = +)
same,"Peptide exchange (peptide exchange yield, MHC class I binding score)",HLA-B*08,“++++” (>75% = ++++)
312 (EAMLRNKEL; listed as Homo sapiens) [compound 312],Wells positive [%],CD8+ T cells; HLA B*08,“+” (<20% = +)
same,"Peptide exchange (peptide exchange yield, MHC class I binding score)",HLA-B*08,“++++” (>75% = ++++)
313 (ELKKKEYEEL; listed as Homo sapiens) [compound 313],Wells positive [%],CD8+ T cells; HLA B*08,“+” (<20% = +)
same,"Peptide exchange (peptide exchange yield, MHC class I binding score)",HLA-B*08,“++++” (>75% = ++++)
314 (AIISRLVAL; listed as Homo sapiens) [compound 314],Wells positive [%],CD8+ T cells; HLA B*08,“++” (20%-49% = ++)
same,"Peptide exchange (peptide exchange yield, MHC class I binding score)",HLA-B*08,“++++” (>75% = ++++)
315 (DIYQRALNL; listed as Homo sapiens) [compound 315],Wells positive [%],CD8+ T cells; HLA B*08,“+” (<20% = +)
same,"Peptide exchange (peptide exchange yield, MHC class I binding score)",HLA-B*08,“++++” (>75% = ++++)
316 (VIKEKALTL; listed as Homo sapiens) [compound 316],Wells positive [%],CD8+ T cells; HLA B*08,“+” (<20% = +)
same,"Peptide exchange (peptide exchange yield, MHC class I binding score)",HLA-B*08,“+++” (>50 = +++)
317 (LVKVKVLL; listed as Homo sapiens) [compound 317],"Peptide exchange (peptide exchange yield, MHC class I binding score)",HLA-B*08,“++++” (>75% = ++++)
318 (EAAIRSVEL; listed as Homo sapiens) [compound 318],Wells positive [%],CD8+ T cells; HLA B*08,“++” (20%-49% = ++)
same,"Peptide exchange (peptide exchange yield, MHC class I binding score)",HLA-B*08,“++++” (>75% = ++++)
